Values after ≈ are worked out from the molar mass of the structure shown. Structures can show the parent of a compound that is named as a salt. Where two headings read alike, the source gives them in different places.
Experiments:
Botrytis cinerea = assay: Example C bean grey mold; format: in vivo; conditions: Botrytis cinerea, 24 h, 100 PPM; read-out: disease control rating, Ex. C
Description: The test compounds were dissolved in acetone in an amount equal to 6% of the final volume and then suspended at a concentration of 100 or 20 ppm in purified water containing 250 ppm of the surfactant TREM 014 (polyhydric alcohol esters). This suspension was sprayed to the point of run-off on broad bean seedlings.

Rhizoctonia solani = assay: Example F rice sheath blight; format: in vivo; conditions: Rhizoctonia solani, 144 h, 100 PPM; read-out: disease control rating, Ex. F
Description: The test compounds were dissolved in acetone in an amount equal to 6% of the final volume and then suspended at a concentration of 100 or 20 ppm in purified water containing 250 ppm of the surfactant TREM 014 (polyhydric alcohol esters). This suspension was sprayed to the point of run-off on rice seedlings.

Pyricularia oryzae = assay: whole plant or invertebrate; format: in vivo; conditions: Pyricularia oryzae, 120 h, read-out: disease control rating, Ex. E, 100 PPM
[1] = system: Cercosporidium personatum; assay: Example B Peanut Late Leafspot; format: in vivo; conditions: Nothopassalora personata; 100 PPM; read-out: disease control rating, Ex. B
Description: The test compounds were dissolved in acetone in an amount equal to 6% of the final volume and then suspended at a concentration of 100 or 20 ppm in purified water containing 250 ppm of the surfactant TREM 014 (polyhydric alcohol esters). This suspension was sprayed to the point of run-off on peanut seedlings.

Phytophthora infestans = assay: whole plant or invertebrate; format: in vivo; conditions: Phytophthora infestans, in Solanum lycopersicum, read-out: disease control rating, Ex. H, 100 PPM
Puccinia recondita = assay: Example G wheat leaf rust; format: in vivo; conditions: 100 PPM, read-out: disease control rating, Ex. G
Plasmorpara viticola = assay: Example I grape downy mildew; format: in vivo; conditions: read-out: disease control rating, Ex. I
Description: The test compounds were dissolved in acetone in an amount equal to 6% of the final volume and then suspended at a concentration of 100 or 20 ppm in purified water containing 250 ppm of the surfactant TREM 014 (polyhydric alcohol esters). This suspension was sprayed to the point of run-off on grape seedlings.

[2] = system: Aspergillus fumigatus ATCC 28214; assay: In vitro antifungal MIC, microtiter broth dilution; conditions: for MIC: Aspergillus fumigatus, ATCC28214, 24 h; for MIC values, A. fumigatus: 30°, 24 hours
[3] = system: Candida albicans ATCC 11651; assay: In vitro antifungal MIC, microtiter broth dilution; conditions: for MIC: Candida albicans, ATCC11651, 24 h; for MIC values, C. albicans: 30°, 24 hours
[4] = system: Candida albicans ATCC 11651; assay: In vivo systemic Candida infection in mice, primary assay; parameters: species or system Candida albicans; CF-1 female mice; conditions: for responders at 150 mg/kg / responders at 1 mg/kg/day: Candida albicans, read-out: % Survival
Source text: The […] activity of test compounds is based on the percent (%) survival of infected animals receiving test or standard agent compared to that in an infected untreated group (Table 6). The in vivo assays are chronic systemic infections lethal to mice within 7 days post infection, [J. Barnes, et al. Lab Investigation, 49 460-467 (1963), and T. Rogers and E. Balish, Infection and Immunity, 14 33-38 (1976)].
Candida albicans ATCC 11651, from a frozen stock culture (10^9 organisms/ml) maintained at -70°, is diluted in saline to 1×10^7 organisms/ml and 0.2 ml inoculated intravenously (caudal vein) into 20.0 gm CF-1 female mice (Charles River).
Test compounds are routinely solubilized in 0.25% (w/v) methylcellulose (Methocel®) but for those compounds difficult to solubilize 10% (w/v) Emulophor® (EL620 GAF Corp.) is used. The standard antifungal agents, amphotericin B (Fungizone®) in water and ketoconazole (Nizoral®) in Methocel®, are administered at 1.0 mg/kg/day and 150 mg/kg/day, respectively.
In a primary assay, mice (10 per group) are infected with C. albicans, and receive test compounds at 50 or 150 mg/kg/day via the subcutaneous route. Animals are dosed with the test compound at 1 and 6 hour post-infection and then once daily for the next three days. Survival of mice in each group is recorded for 21 days.
Compounds which protect ≥70% of the infected animals for 14 days at a dose 150 mg/kg/day or less are viewed as active.

[5] = read-out: MIC values, A. fumigatus, 30°, 24 hours
[6] = read-out: MIC values, C. albicans, 30°, 24 hours
[7] = ATCC11651, 168 h, 150 mg/kg per day, day 7
[8] = ATCC11651, 336 h, 150 mg/kg per day, day 14
[9] = ATCC11651, 504 h, 150 mg/kg per day, day 21
[10] = read-out: MIC values, A. fumigatus
[11] = read-out: MIC values, C. albicans

C=C(CO)C(O)(Cn1cncn1)c1ccccc1 (stereo not shown) [Example 448]
pest or weed control at 100 ppm (Botrytis cinerea): 54% | pest or weed control at 100 ppm (Rhizoctonia solani): 42% | pest or weed control at 100 ppm (Pyricularia oryzae): 0% | pest or weed control at 100 ppm [1]: 0% | pest or weed control at 100 ppm (Phytophthora infestans): 0% | pest or weed control at 100 ppm (Puccinia recondita): 16% | pest or weed control at 100 ppm (Plasmorpara viticola): 0%

C=C(c1ccc(C(C)(C)C)cc1)C(O)(Cn1cncn1)c1ccc(F)cc1 (stereo not shown) [Example 114]
MIC [2, 5]: 50 µg/mL (≈ 137 µM) | MIC [3, 6]: 0.4 µg/mL (≈ 1.09 µM) | responders at 150 mg/kg [4, 7]: 70% | responders at 150 mg/kg [4, 8]: 10% | responders at 150 mg/kg [4, 9]: 10%

C=C(c1ccc(Cl)cc1)C(O)(Cn1cncn1)c1ccc(Cl)cc1Cl (stereo not shown) [Example 26 HCl salt]
% Survival ([4]; 150 mg/kg per day, day 7): 100% | % Survival ([4]; 150 mg/kg per day, day 14, listed as 26 salt): 90% | % Survival ([4]; 150 mg/kg per day, day 21, listed as 26 salt): 80%

CC=C(c1ccccc1)C(O)(Cn1cncn1)c1ccc(F)cc1 (stereo not shown) [Example 286]
MIC [2, 5]: 25 µg/mL (≈ 77.3 µM) | MIC [3, 6]: 0.4 µg/mL (≈ 1.24 µM) | responders at 150 mg/kg [4, 7]: 100% | responders at 150 mg/kg [4, 8]: 50% | responders at 150 mg/kg [4, 9]: 20%

OC(Cn1cncn1)(c1ccc(F)cc1)C1(c2ccc(F)cc2)CO1 (single isomer, unassigned) [Example 1487, 2,3-bis(4-fluorophenyl)-1-(1H-1,2,4-triazol-1-yl)-3,4-epoxy-2-butanol]
MIC [2, 5]: 6.3 µg/mL (≈ 18.3 µM) | MIC [3, 6]: 0.4 µg/mL (≈ 1.17 µM) | responders at 150 mg/kg [4, 7]: 100% | responders at 150 mg/kg [4, 8]: 100% | responders at 150 mg/kg [4, 9]: 70%

C=C(c1ccc(F)cc1)C(O)(Cn1cncn1)c1ccc(F)cc1 (stereo not shown) [1 HCl salt]
MIC values, A. fumigatus [2]: 12.5 µg/mL | MIC values, C. albicans [3]: 0.05 µg/mL

C=C(c1ccccc1Cl)C(O)(Cn1cncn1)c1ccc(Cl)cc1 (stereo not shown) [34 HCl salt]
MIC values, A. fumigatus [2]: 1.6 µg/mL | MIC values, C. albicans [3]: 0.03 µg/mL

Nc1nc(=O)[nH]cc1F [5-Fluorocytosine, reference compound]
MIC [2, 5]: 5.7 ± 4 µg/mL (≈ 44.2 µM) | MIC [3, 6]: 0.14 ± 0.1 µg/mL (≈ 1.08 µM)

C=C(c1ccc(F)cc1)C(O)(Cn1cncn1)c1ccncc1 (stereo not shown) [Example 699]
MIC [2, 5]: 100 µg/mL (≈ 322 µM) | MIC [3, 6]: 50 µg/mL (≈ 161 µM)

C=C(c1ccc(F)cc1)C(O)(c1ccc(F)cc1)C(F)n1cncn1 (stereo not shown) [Example 1258]
MIC [2, 5]: > 100 µg/mL | MIC [3, 6]: 1.6 µg/mL (≈ 4.63 µM)

C=C(c1ccccc1Cl)C(O)(Cn1cncn1)c1ccc(Cl)cc1 (stereo not shown) [34 salt]
% Survival ([4]; 150 mg/kg per day, day 7): 100% | % Survival ([4]; 150 mg/kg per day, day 14): 100% | % Survival ([4]; 150 mg/kg per day, day 21): 100%

C[C@@H]1[C@H](O)[C@@H](C)/C=C/C=C/CC/C=C/C=C/C=C/C=C/C(O[C@H]2O[C@H](C)[C@@H](O)[C@H](N)[C@@H]2O)CC2O[C@](O)(CC(O)C(O)CCC(O)CC(O)CC(O)CC(=O)O[C@H]1C)CC(O)C2C(=O)O (stereo partly shown) [Nystatin, reference compound]
MIC values, A. fumigatus [2]: 3.0 ± 1.0 µg/mL (≈ 3.24 µM) | MIC values, C. albicans [3]: 1.3 ± 0 µg/mL (≈ 1.4 µM)

Clc1ccc(COC(Cn2ccnc2)c2ccc(Cl)cc2Cl)c(Cl)c1 (stereo not shown) [Miconazole, reference compound]
MIC [2, 10]: 1.3 µg/mL (≈ 3.12 µM) | MIC [3, 11]: ≤ 0.1 µg/mL

C=C(c1ccc(F)cc1)C(O)(Cn1cncn1)c1ccc(F)cc1 (single isomer, unassigned) [1277 HCl salt]
MIC values, A. fumigatus [2]: 3.2 µg/mL | MIC values, C. albicans [3]: 0.03 µg/mL

C=C(c1ccc(C(C)(C)C)cc1)C(O)(Cn1cncn1)c1ccc(Cl)cc1 (stereo not shown) [Example 117]
MIC [2, 5]: 100 µg/mL (≈ 262 µM) | MIC [3, 6]: 0.4 µg/mL (≈ 1.05 µM) | responders at 150 mg/kg [4, 7]: 60% | responders at 150 mg/kg [4, 8]: 0% | responders at 150 mg/kg [4, 9]: 0%

C=C(c1ccccc1Cl)C(O)(Cn1cncn1)c1ccc(F)cc1F (stereo not shown) [35 salt]
% Survival ([4]; 150 mg/kg per day, day 7): 100% | % Survival ([4]; 150 mg/kg per day, day 14): 100% | % Survival ([4]; 150 mg/kg per day, day 21): 70%

C=C(c1ccc(F)cc1)C(O)(c1ccc(F)cc1)C(F)(F)n1cncn1 (stereo not shown) [Example 1260]
MIC [2, 5]: > 100 µg/mL | MIC [3, 6]: 0.8 µg/mL (≈ 2.2 µM)

C=C(c1cccc(C(F)(F)F)c1)C(O)(Cn1cncn1)c1ccc(F)cc1 (stereo not shown) [Example 725]
responders at 150 mg/kg [4, 7]: 90% | responders at 150 mg/kg [4, 8]: 90% | responders at 150 mg/kg [4, 9]: 40%

C[C@@H]1[C@H](O)[C@@H](C)/C=C/C=C/C=C/C=C/C=C/C=C/C=C/[C@H](O[C@@H]2O[C@H](C)[C@@H](O)[C@H](N)[C@@H]2O)C[C@@H]2O[C@](O)(C[C@@H](O)C[C@@H](O)[C@H](O)CC[C@@H](O)C[C@@H](O)CC(=O)O[C@H]1C)C[C@H](O)[C@H]2C(=O)O [Amphotericin B, reference compound]
MIC [2, 10]: 1.4 ± 0.5 µg/mL (≈ 1.52 µM) | MIC [3, 11]: 0.33 ± 0.2 µg/mL (≈ 0.357 µM) | responders at 1 mg/kg/day ([4]; ATCC11651, 168 h): 100% | responders at 1 mg/kg/day ([4]; ATCC11651, 336 h): 100% | responders at 1 mg/kg/day ([4]; ATCC11651, 504 h): 100%

C=C(c1ccccc1Cl)C(O)(Cn1cncn1)c1ccc(F)cc1F (stereo not shown) [35 HCl salt]
MIC values, A. fumigatus [2]: ≤ 0.2 µg/mL | MIC values, C. albicans [3]: 0.03 µg/mL

C=C(c1ccc(Br)cc1)C(O)(Cn1cncn1)c1ccc(F)cc1 (stereo not shown) [Example 85]
MIC [2, 5]: 12.5 µg/mL (≈ 32.2 µM) | MIC [3, 6]: ≤ 0.4 µg/mL | responders at 150 mg/kg [4, 7]: 100% | responders at 150 mg/kg [4, 8]: 80% | responders at 150 mg/kg [4, 9]: 70%

C=C(c1ccccc1)C(O)(Cn1cncn1)C(F)(F)C(F)(F)C(F)(F)C(F)(F)F (stereo not shown) [Example 55]
responders at 150 mg/kg ([4]; ATCC11651, 168 h): 100% | responders at 150 mg/kg ([4]; ATCC11651, 336 h): 70% | responders at 150 mg/kg ([4]; ATCC11651, 504 h): 50%

CC(=O)N1CCN(c2ccc(OCC3COC(Cn4ccnc4)(c4ccc(Cl)cc4Cl)O3)cc2)CC1 (stereo not shown) [Ketoconazole, reference compound]
MIC [2, 5]: 11 ± 5 µg/mL (≈ 20.7 µM) | MIC [3, 6]: ≤ 0.1 µg/mL | responders at 150 mg/kg [4, 7]: 100% | responders at 150 mg/kg [4, 8]: 80% | responders at 150 mg/kg [4, 9]: 50%

C=C(c1ccc(Cl)cc1)C(O)(Cn1cncn1)c1ccc(Cl)cc1Cl (stereo not shown) [26 HCl salt]
MIC values, A. fumigatus [2]: 0.4 µg/mL | MIC values, C. albicans [3]: 0.03 µg/mL

From patent US4965280A, “Antifungal carbinols” (E. I. Du Pont de Nemours and Company, priority 1989, dated 1990)
